Each structure is given as a SMILES string.

The target of assay [1] is Carbonic anhydrase 1 (Homo sapiens, UniProt P00915). Description: Inhibition of human carbonic anhydrase 1 assessed as inhibitory constant incubated for 15 mins by phenol red dye based stopped flow assay.
For assay [2], the target named is Carbonic anhydrase 2 (Homo sapiens, UniProt P00918). Put plainly: Inhibition of human carbonic anhydrase 2 assessed as inhibitory constant incubated for 15 mins by phenol red dye based stopped flow assay.
For assay [3], the target named is T1, Carbonic anhydrase 9 (Homo sapiens, UniProt Q16790). Description: Inhibition of human carbonic anhydrase 9 assessed as inhibitory constant incubated for 15 mins by phenol red dye based stopped flow assay.
Assay [4] deals with T2, Carbonic anhydrase 12 (Homo sapiens, UniProt O43570). Put plainly: Inhibition of human carbonic anhydrase 12 assessed as inhibitory constant incubated for 15 mins by phenol red dye based stopped flow assay.
T2 sequence (O43570 whole entry): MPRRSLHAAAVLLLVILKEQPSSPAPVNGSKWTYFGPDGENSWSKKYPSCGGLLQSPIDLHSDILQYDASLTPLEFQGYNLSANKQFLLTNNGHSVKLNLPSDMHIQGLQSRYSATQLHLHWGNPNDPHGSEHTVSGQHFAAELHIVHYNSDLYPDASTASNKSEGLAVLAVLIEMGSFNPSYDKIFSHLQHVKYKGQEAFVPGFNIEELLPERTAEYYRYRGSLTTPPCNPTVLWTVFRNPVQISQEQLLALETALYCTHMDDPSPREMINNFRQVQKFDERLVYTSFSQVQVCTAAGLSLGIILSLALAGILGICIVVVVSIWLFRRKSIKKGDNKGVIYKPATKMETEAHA
Assay [5] concerns the target T1, Carbonic anhydrase 9. The settings on record: at 0.001 µM.
Description: Inhibition of human carbonic anhydrase 9 assessed as reduction in CO2 hydration at 10^-9 M incubated for 15 mins by phenol red dye based stopped flow assay relative to control (Rvb = 0 %)
Assay [6] has as its target T1, Carbonic anhydrase 9. The settings on record: at 0.01 µM.
Description: Inhibition of human carbonic anhydrase 9 assessed as reduction in CO2 hydration at 10^-8 M incubated for 15 mins by phenol red dye based stopped flow assay relative to control (Rvb = 0 %)
Assay [7] concerns the target T1, Carbonic anhydrase 9. The settings on record: at 0.1 µM.
Description: Inhibition of human carbonic anhydrase 9 assessed as reduction in CO2 hydration at 10^-7 M incubated for 15 mins by phenol red dye based stopped flow assay relative to control (Rvb = 0 %)
Assay [8] has as its target T1, Carbonic anhydrase 9. The settings on record: at 1 µM.
Description: Inhibition of human carbonic anhydrase 9 assessed as reduction in CO2 hydration at 10^-6 M incubated for 15 mins by phenol red dye based stopped flow assay relative to control (Rvb = 0 %)
The target of assay [9] is T2, Carbonic anhydrase 12. The settings on record: at 0.001 µM.
For assay [10], the target named is T2, Carbonic anhydrase 12. The settings on record: at 0.01 µM.
Assay [11] has as its target T2, Carbonic anhydrase 12. The settings on record: at 0.1 µM.
Description: Inhibition of human carbonic anhydrase 12 assessed as reduction in CO2 hydration at 10^-7 M incubated for 15 mins by phenol red dye based stopped flow assay relative to control (Rvb = 0 %)
The target in assay [12] is T2, Carbonic anhydrase 12. The settings on record: at 1 µM.
Description: Inhibition of human carbonic anhydrase 12 assessed as reduction in CO2 hydration at 10^-6 M incubated for 15 mins by phenol red dye based stopped flow assay relative to control (Rvb = 0 %)

Chain of Carbonic anhydrase 1 (P00915 whole entry): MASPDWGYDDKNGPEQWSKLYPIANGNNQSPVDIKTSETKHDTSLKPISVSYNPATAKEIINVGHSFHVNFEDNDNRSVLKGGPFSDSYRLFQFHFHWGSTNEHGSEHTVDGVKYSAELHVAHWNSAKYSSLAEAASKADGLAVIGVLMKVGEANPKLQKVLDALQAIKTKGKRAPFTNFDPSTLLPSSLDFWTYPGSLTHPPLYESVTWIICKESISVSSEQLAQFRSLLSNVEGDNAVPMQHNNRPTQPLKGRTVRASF

Consider `CC(=O)N1N=C(c2cccc(OS(N)(=O)=O)c2)CC1c1ccc(Cl)cc1` (configuration not stated), for which the Ki in [1] is 438 nM; in [2], 14.7 nM; in assay [3] it was 6.9 nM; in assay [4] it was 9.3 nM.
The matching figures for `CC(=O)N1N=C(c2cccc(OS(N)(=O)=O)c2)CC1c1ccc([N+](=O)[O-])cc1` (configuration not stated): 1460 nM, 134 nM, 10.1 nM and 20.8 nM.
Consider `CC(=O)N1N=C(c2ccc(OS(N)(=O)=O)cc2)CC1c1ccc([N+](=O)[O-])cc1` (configuration not stated), for which the results for the Ki in [1], in assay [2] and in assay [3] were 3210 nM, 1.2 nM and 74.3 nM, respectively.
As for `CC(=O)N1N=C(c2cccc(OS(N)(=O)=O)c2)CC1c1cccc(Cl)c1` (configuration not stated), the Ki in assay [1] was determined as 805 nM; in assay [2], 56.9 nM; in [3], 7.3 nM; in assay [4], 44.6 nM.
As for `CC(=O)N1N=C(c2cccc(OS(N)(=O)=O)c2)CC1c1ccc(F)cc1` (configuration not stated), the Ki was found to be 67.4 nM in [1], 38 nM in assay [2], 8.4 nM in assay [3] and 13.5 nM in [4].
Consider `CC(=O)N1N=C(c2ccc(Cl)c(Cl)c2)CC1c1cccc(OS(N)(=O)=O)c1` (configuration not stated), for which the inhibition constant Ki in assay [1] was found to be 8170 nM; in [2], 54.8 nM; in [3] it was 15.5 nM; in [4] it was 85.2 nM.
The matching figures for `CC(=O)N1N=C(c2ccc(OS(N)(=O)=O)cc2)CC1c1cccc(Cl)c1` (configuration not stated): 2310 nM, 0.87 nM, 0.72 nM and 9.8 nM.
On to `CC(=O)N1N=C(c2ccc(OS(N)(=O)=O)cc2)CC1c1ccccc1` (configuration not stated), for which the Ki was found to be 1310 nM in assay [1], 8.9 nM in assay [2] and 34.1 nM in assay [3].
For `CC(=O)N1N=C(c2cccc(OS(N)(=O)=O)c2)CC1c1ccccc1Cl` (configuration not stated), the Ki stood at 940 nM in assay [1], 90.1 nM in assay [2], 43.6 nM in assay [3] and 74.4 nM in [4].
The matching figures for `CC(=O)N1N=C(c2cccc(OS(N)(=O)=O)c2)CC1c1ccccc1` (configuration not stated): 188 nM, 39.4 nM, 29.9 nM and 55.1 nM.
Consider `CC(=O)N1N=C(c2ccc(F)cc2)CC1c1cccc(OS(N)(=O)=O)c1` (configuration not stated), for which the inhibition constant (Ki) in assay [1] worked out at 5230 nM; in [2], 6.5 nM; in [3], 15.8 nM.
With `COc1ccc(C2=NN(C(C)=O)C(c3ccc(OS(N)(=O)=O)cc3)C2)cc1` (configuration not stated), the Ki in assay [1] stood at 2980 nM; in assay [2], 0.42 nM; in assay [3] it was 22.8 nM; in [4] it was 9.5 nM.
Taken in the same sequence, the figures for `CC(=O)N1N=C(c2ccc([N+](=O)[O-])cc2)CC1c1cccc(OS(N)(=O)=O)c1` (configuration not stated) were 2550 nM, 22.9 nM, 9.4 nM and 20.5 nM.
Taken in the same sequence, the figures for `CC(=O)N1N=C(c2ccc(Cl)cc2)CC1c1cccc(OS(N)(=O)=O)c1` (configuration not stated) were 2140 nM, 32.7 nM, 0.81 nM and 22.3 nM.
Taken in the same sequence, the figures for `CC(=O)N1N=C(c2ccc(OS(N)(=O)=O)cc2)CC1c1ccc(F)cc1` (configuration not stated) were 666 nM, 1.5 nM, 5.9 nM and 11.8 nM.
`CC(=O)N1N=C(c2cccc(OS(N)(=O)=O)c2)CC1c1ccc(C(F)(F)F)cc1` (configuration not stated): the Ki in [1] came out at 952 nM; in assay [2] it was 22.2 nM; in assay [3], 3.7 nM; in [4] it was 8.9 nM.
Take `CC(=O)N1N=C(c2ccccc2)CC1c1ccc(OS(N)(=O)=O)cc1` (configuration not stated): the Ki was determined as 645 nM in assay [1], 44.8 nM in assay [2], 45.1 nM in [3] and 10.6 nM in assay [4]. Moreover, the inhibition in assay [5] stood at 16%; in assay [6], 42%; in assay [7], 69%; in assay [8], 81%; in [9] it was 15%; in [10] it was 49%. For the same compound, the inhibition is 77% in assay [11] and 89% in assay [12].
In the case of `CC(=O)N1N=C(c2cccc(OS(N)(=O)=O)c2)CC1c1ccc(Cl)cc1Cl` (configuration not stated), the inhibition constant (Ki) is 1410 nM in [1], 195 nM in assay [2], 13.8 nM in assay [3] and 33.8 nM in assay [4].
The matching figures for `CC(=O)N1N=C(c2ccc(OS(N)(=O)=O)cc2)CC1c1c(Cl)cccc1Cl` (configuration not stated): 4080 nM, 13.2 nM, 33.4 nM and 43.7 nM.
`CC(=O)N1N=C(c2ccc(C)cc2)CC1c1ccc(OS(N)(=O)=O)cc1` (configuration not stated): the Ki turned out to be 2340 nM in assay [1], 9.9 nM in [2], 22.4 nM in [3] and 7.7 nM in assay [4].
The matching figures for `CC(=O)N1N=C(c2ccccc2)CC1c1cccc(OS(N)(=O)=O)c1` (configuration not stated): 755 nM, 16.5 nM, 13.1 nM and 22.9 nM.
Turning to `CC(=O)N1N=C(c2ccc(OS(N)(=O)=O)cc2)CC1c1cccc2ccccc12` (configuration not stated), the Ki in assay [1] turned out to be 3300 nM; in assay [2], 27.5 nM; in assay [3] it was 49 nM; in assay [4], 56.4 nM.
Taken in the same sequence, the figures for `CC(=O)N1N=C(c2ccc(Cl)cc2Cl)CC1c1cccc(OS(N)(=O)=O)c1` (configuration not stated) were 6940 nM, 12 nM, 48.7 nM and 30.8 nM.
Take `COc1ccc(C2CC(c3ccc(OS(N)(=O)=O)cc3)=NN2C(C)=O)cc1` (configuration not stated): the Ki in [1] was 1610 nM; in assay [2] it was 5.3 nM; in assay [3], 25 nM; in [4], 42.6 nM.
The matching figures for `CC(=O)N1N=C(c2ccc(OS(N)(=O)=O)cc2)CC1c1ccc(Cl)cc1` (configuration not stated): 1140 nM, 6 nM, 6.9 nM and 27.3 nM.
The matching figures for `CC(=O)N1N=C(c2ccc(Cl)cc2)CC1c1ccc(OS(N)(=O)=O)cc1` (configuration not stated): 970 nM, 19.5 nM, 8.3 nM and 29.5 nM.
Taken in the same sequence, the figures for `CC(=O)N1N=C(c2cccc(OS(N)(=O)=O)c2)CC1c1ccc(C)cc1` (configuration not stated) were 558 nM, 71.2 nM, 29.4 nM and 55.9 nM.
Regarding `CC(=O)N1N=C(c2cccc(OS(N)(=O)=O)c2)CC1c1c(Cl)cccc1Cl` (configuration not stated), the Ki in assay [1] stood at 1780 nM; in assay [2] it was 223 nM; in assay [3] it was 63.6 nM; in [4], 61.3 nM.
The matching figures for `CC(=O)N1N=C(c2cccc(OS(N)(=O)=O)c2)CC1c1cccc2ccccc12` (configuration not stated): 2240 nM, 216 nM, 51.1 nM and 463 nM.
The matching figures for `CC(=O)N1N=C(c2ccc(Cl)cc2Cl)CC1c1ccc(OS(N)(=O)=O)cc1` (configuration not stated): 3520 nM, 5.3 nM, 49.9 nM and 42 nM.
In the case of `CC(=O)N1N=C(c2ccc(OS(N)(=O)=O)cc2)CC1c1ccc(C(F)(F)F)cc1` (configuration not stated), the Ki was 2740 nM in assay [1], 0.83 nM in assay [2] and 29.3 nM in [3].
As for `COc1ccc(C2CC(c3cccc(OS(N)(=O)=O)c3)=NN2C(C)=O)cc1` (configuration not stated), the Ki in assay [1] was 172 nM; in assay [2] it was 52.4 nM; in assay [3], 8.7 nM; in assay [4], 48.6 nM.
The matching figures for `CC(=O)N1N=C(c2ccc(Cl)c(Cl)c2)CC1c1ccc(OS(N)(=O)=O)cc1` (configuration not stated): 2900 nM, 27.6 nM, 7.7 nM and 12.9 nM.
Taken in the same sequence, the figures for `CC(=O)N1N=C(c2cccc(OS(N)(=O)=O)c2)CC1c1cc(Cl)ccc1Cl` (configuration not stated) were 2040 nM, 92.6 nM, 58.9 nM and 34.2 nM.
Taken in the same sequence, the figures for `CC(=O)N1N=C(c2ccc(C)cc2)CC1c1cccc(OS(N)(=O)=O)c1` (configuration not stated) were 1540 nM, 25.4 nM, 8.9 nM and 49.8 nM.
In the case of `CC(=O)N1N=C(c2ccc(OS(N)(=O)=O)cc2)CC1c1ccc(C)cc1` (configuration not stated), the Ki was found to be 817 nM in assay [1], 6.5 nM in [2], 7.1 nM in [3] and 22.3 nM in assay [4].
Taken in the same sequence, the figures for `CC(=O)N1N=C(c2ccc(OS(N)(=O)=O)cc2)CC1c1ccc(Cl)cc1Cl` (configuration not stated) were 3750 nM, 9.3 nM, 11.2 nM and 26.2 nM.
In the case of `CC(=O)N1N=C(c2ccc(OS(N)(=O)=O)cc2)CC1c1ccccc1Cl` (configuration not stated), the figures for the inhibition constant (Ki) in assay [1], in [2] and in assay [3] were 8250 nM, 9 nM and 25.9 nM, respectively.
Taken in the same sequence, the figures for `CC(=O)N1N=C(c2ccc(OS(N)(=O)=O)cc2)CC1c1cc(Cl)ccc1Cl` (configuration not stated) were 4750 nM, 12.4 nM and 25.5 nM.
In the case of `CC(=O)N1N=C(c2ccc([N+](=O)[O-])cc2)CC1c1ccc(OS(N)(=O)=O)cc1` (configuration not stated), the Ki in [1] stood at 3820 nM; in [2] it was 9.5 nM; in assay [3], 15 nM; in assay [4], 0.88 nM.
